Literature values in patent US20260345619A1 (Principia Biopharma Inc., priority 2023, published 2026).
Where two headings read alike, the source gives them in different places.

Assays:
[1] = test system: 251 kinases sharing a common cysteine in their active site; settings: 1 μM; panel of 251 kinases; cited from earlier work
[2] = cited from earlier work

Molecule: C=CC(=O)N1CCC[C@@H](n2nc(-c3ccc(Oc4ccccc4)cc3)c3c(N)ncnc32)C1 [ibrutinib, reference compound]
- number of kinases inhibited (>90% inhibition) [1]: 21 kinases

Molecule: benralizumab: anti-IL5 receptor
- efficacy ([2]; severe asthma, eosinophilic phenotype): have shown efficacy

Molecule: omalizumab: anti-immunoglobulin E (IgE) agent
- black box warning ([2]; in vivo): black box warning of potential for anaphylaxis
- efficacy ([2]; severe, corticosteroid-refractory allergy-induced asthma): has shown efficacy
